Measured values taken from PMC8745314, “Novel Tetrazole-Based Antimicrobial Agents Targeting Clinical Bacteria Strains: Exploring the Inhibition of Staphylococcus aureus DNA Topoisomerase IV and Gyrase” (International Journal of Molecular Sciences, 2021).

Legend:
[1] = molecular target: S. aureus topoisomerase IV (Staphylococcus aureus, UniProt P0C1S7+P0C1U9); test: Topoisomerase IV decatenation assay; assay type: biochemical; conditions: decatenation of kinetoplast DNA, read-out: IC50 ± S.E.M. for Topoisomerase IV (converted)
Sequence of S. aureus topoisomerase IV (P0C1S7 whole entry): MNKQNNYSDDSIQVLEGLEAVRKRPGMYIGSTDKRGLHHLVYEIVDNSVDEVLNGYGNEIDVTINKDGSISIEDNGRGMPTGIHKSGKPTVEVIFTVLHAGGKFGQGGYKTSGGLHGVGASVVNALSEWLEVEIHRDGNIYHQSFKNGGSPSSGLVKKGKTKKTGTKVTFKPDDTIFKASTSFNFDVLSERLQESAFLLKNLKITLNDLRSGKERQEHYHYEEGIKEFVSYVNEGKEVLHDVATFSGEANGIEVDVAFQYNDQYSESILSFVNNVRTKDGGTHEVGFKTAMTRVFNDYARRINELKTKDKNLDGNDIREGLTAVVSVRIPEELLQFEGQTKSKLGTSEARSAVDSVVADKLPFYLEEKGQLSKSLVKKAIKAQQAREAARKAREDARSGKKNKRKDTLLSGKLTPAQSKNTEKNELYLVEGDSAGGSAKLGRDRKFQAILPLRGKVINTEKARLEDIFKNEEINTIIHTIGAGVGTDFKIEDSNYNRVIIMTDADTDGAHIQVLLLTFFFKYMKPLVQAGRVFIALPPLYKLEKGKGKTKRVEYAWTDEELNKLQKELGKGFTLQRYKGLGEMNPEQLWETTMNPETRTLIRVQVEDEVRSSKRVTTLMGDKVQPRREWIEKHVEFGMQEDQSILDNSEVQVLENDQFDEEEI
Sequence of S. aureus topoisomerase IV (P0C1U9 whole entry): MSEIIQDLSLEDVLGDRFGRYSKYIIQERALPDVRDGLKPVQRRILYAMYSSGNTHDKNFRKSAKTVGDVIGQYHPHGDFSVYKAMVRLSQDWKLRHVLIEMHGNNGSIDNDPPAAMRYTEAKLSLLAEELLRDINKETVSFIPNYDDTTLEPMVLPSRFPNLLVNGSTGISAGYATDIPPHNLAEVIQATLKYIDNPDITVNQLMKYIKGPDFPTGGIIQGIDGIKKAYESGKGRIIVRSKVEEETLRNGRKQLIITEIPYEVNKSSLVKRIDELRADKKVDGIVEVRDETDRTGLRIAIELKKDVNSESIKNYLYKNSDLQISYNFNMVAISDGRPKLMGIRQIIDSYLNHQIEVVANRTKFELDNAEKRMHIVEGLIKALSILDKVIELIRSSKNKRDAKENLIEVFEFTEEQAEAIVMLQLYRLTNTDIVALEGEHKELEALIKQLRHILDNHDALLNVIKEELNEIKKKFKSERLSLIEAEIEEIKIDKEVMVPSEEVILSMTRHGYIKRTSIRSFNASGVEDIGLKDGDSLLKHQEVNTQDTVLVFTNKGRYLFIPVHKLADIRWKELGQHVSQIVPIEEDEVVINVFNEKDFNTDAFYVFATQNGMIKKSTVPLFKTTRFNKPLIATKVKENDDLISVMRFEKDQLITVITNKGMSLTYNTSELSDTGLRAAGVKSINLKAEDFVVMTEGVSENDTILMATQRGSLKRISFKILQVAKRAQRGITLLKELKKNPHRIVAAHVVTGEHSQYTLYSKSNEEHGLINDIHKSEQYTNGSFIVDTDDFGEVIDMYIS
Protocol: (§1) Description related to conducted biological studies including cell culture, suitable conditions, and methodology was presented in our previous paper.
Figure 1 The effect of tested compounds on S. aureus topoisomerase IV activity. Decreasing amounts of 1, 2, or 3 were incubated with 200 ng kinetoplast DNA and run-on agarose gel. Lane: 1–5: compound 3 at concentrations 64, 32, 8, 2, 0.5 μg/mL, respectively. Lane: 6–10: compound 2 at concentrations 64, 32, 8, 2, 0.5 μg/mL, respectively. Lane: 11–15: compound 1 at concentrations 64, 32, 8, 2, 0.5 μg/mL, respectively.

S. aureus DNA gyrase = S. aureus DNA gyrase (Staphylococcus aureus, UniProt P0A0K8+P20831); test: DNA gyrase supercoiling assay; assay type: biochemical; conditions: pBR322, read-out: IC50 ± S.E.M. for DNA Gyrase (converted)
Sequence of S. aureus DNA gyrase (P0A0K8 whole entry): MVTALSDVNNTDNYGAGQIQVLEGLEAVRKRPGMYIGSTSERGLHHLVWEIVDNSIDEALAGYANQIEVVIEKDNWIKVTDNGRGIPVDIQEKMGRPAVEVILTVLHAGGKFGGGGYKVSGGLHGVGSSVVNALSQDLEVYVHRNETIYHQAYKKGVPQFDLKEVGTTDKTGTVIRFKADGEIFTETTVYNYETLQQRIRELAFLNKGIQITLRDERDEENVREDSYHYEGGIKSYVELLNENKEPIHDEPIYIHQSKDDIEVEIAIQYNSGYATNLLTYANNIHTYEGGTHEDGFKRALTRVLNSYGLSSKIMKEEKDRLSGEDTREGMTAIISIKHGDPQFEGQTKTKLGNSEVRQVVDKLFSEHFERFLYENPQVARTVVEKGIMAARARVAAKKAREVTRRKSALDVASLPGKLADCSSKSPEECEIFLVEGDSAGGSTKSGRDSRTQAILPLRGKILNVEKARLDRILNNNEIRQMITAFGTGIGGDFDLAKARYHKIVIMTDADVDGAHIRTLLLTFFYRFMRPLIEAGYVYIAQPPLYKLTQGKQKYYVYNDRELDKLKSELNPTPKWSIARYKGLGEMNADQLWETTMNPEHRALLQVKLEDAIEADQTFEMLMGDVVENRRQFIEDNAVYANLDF
Sequence of S. aureus DNA gyrase (P20831 whole entry): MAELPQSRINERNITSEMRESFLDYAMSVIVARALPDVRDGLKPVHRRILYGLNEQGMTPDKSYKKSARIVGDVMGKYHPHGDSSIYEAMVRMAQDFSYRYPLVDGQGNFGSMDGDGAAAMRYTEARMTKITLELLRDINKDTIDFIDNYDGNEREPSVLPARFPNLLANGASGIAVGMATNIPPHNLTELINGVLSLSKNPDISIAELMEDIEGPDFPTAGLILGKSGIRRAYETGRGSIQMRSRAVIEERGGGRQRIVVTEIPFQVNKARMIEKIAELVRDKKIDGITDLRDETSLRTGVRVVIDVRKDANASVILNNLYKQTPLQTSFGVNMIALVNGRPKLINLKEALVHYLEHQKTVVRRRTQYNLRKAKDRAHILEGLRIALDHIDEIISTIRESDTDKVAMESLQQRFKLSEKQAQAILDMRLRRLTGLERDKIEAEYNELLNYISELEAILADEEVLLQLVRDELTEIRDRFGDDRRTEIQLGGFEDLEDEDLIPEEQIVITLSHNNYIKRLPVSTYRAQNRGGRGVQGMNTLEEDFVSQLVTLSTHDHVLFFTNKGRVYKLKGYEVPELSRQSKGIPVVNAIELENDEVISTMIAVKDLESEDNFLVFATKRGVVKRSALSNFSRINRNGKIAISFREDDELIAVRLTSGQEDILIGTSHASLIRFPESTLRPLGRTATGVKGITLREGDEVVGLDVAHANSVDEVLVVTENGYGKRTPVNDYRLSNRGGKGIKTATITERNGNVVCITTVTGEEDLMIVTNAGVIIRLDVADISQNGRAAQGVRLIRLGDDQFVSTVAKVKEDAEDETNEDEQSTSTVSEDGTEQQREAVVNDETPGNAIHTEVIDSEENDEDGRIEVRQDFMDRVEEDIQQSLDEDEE
Protocol: as §1
Figure 2 The influence of tested compounds on S. aureus DNA gyrase activity. Decreasing amounts of 1, 2, or 3 were incubated with supercoiled pBR322 plasmid DNA (500 ng) and run-on agarose gel. Lane 1: S. aureus DNA gyrase assay with DMSO (control). Lane: 2–5: compound 3 at concentrations 64, 32, 8, 2 μg/mL, respectively. Lane: 6–9: compound 2 at concentrations 64, 32, 8, 2 μg/mL, respectively. Lane: 10–13: compound 1 at concentrations 64, 32, 8, 2 μg/mL, respectively.

[2] = tested on: standard and clinical Gram-positive and Gram-negative bacterial strains; test: MIC range over standard and clinical strains (abstract); assay type: cell-based
Protocol: Eleven novel imide-tetrazoles were synthesized. In the initial stage of research, in silico structure-based pharmacological prediction was conducted. All compounds were screened for antimicrobial activity using standard and clinical strains. Within the studied group, compounds 1–3 were recognized as leading structures with the most promising results in antimicrobial studies. […] Additionally, all three inhibited the growth of all clinical Staphylococci panels: Staphylococcus aureus (T5592; T5591) and Staphylococcus epidermidis (5253; 4243) with MIC values of 0.8 μg/mL. Selected compounds were examined in topoisomerase IV decatenation assay and DNA gyrase supercoiling assay, followed by suitable molecular docking studies to explore the possible binding modes. […] The compounds 1–3 proposed here provide a promising basis for further exploration towards novel antimicrobial drug candidates.
The antimicrobial assays were conducted using reference strains of bacteria derived from international microbe collections: American Type Culture Collection (ATCC) and National Collection of Type Culture (NCTC). The following standard strains of bacteria were used: Gram-positive—Staphylococcus aureus NCTC 4163, Staphylococcus aureus ATCC 25923, Staphylococcus aureus ATCC 6538, Staphylococcus aureus ATCC 29213, Staphylococcus epidermidis ATCC 12228, Staphylococcus epidermidis ATCC 35984, Gram-negative: Escherichia coli ATCC 25922, Pseudomonas aeruginosa ATCC 15442. […] MIC was determined by the two-fold serial broth microdilution method in 96-well microtitration plates using Mueller–Hinton II broth medium (Becton Dickinson, Franklin Lakes, NJ, USA). […]

Structure (SMILES)	IC50 [1]	IC50 (S. aureus DNA gyrase)	MIC values, range [2]
CC1=C(C)C2(C)CC1(C)C1C(=O)N(Nc3nnnn3-c3ccccc3Br)C(=O)C12 (stereo not drawn) [Compound 3, 2-((1-(2-Bromophenyl)-1H-tetrazol-5-yl)amino)-4,5,6,7-tetramethyl-3a,4,7,7a-tetrahydro-1H-4,7-methanoisoindole-1,3(2H)-dione]	134 µM	99.3 µM	0.8 to 3.2 µg/mL
CC1=C(C)C2(C)CC1(C)C1C(=O)N(Nc3nnnn3-c3ccccc3Cl)C(=O)C12 (stereo not drawn) [Compound 2, 2-((1-(2-Chlorophenyl)-1H-tetrazol-5-yl)amino)-4,5,6,7-tetramethyl-3a,4,7,7a-tetrahydro-1H-4,7-methanoisoindole-1,3(2H)-dione]	141 µM	90.9 µM	0.8 to 3.2 µg/mL
CC1=C(C)C2(C)CC1(C)C1C(=O)N(Nc3nnnn3-c3cccc(C(F)(F)F)c3)C(=O)C12 (stereo not drawn) [Compound 1, 4,5,6,7-Tetramethyl-2-((1-(3-(trifluoromethyl)phenyl)-1H-tetrazol-5-yl)amino)-3a,4,7,7a-tetrahydro-1H-4,7-methanoisoindole-1,3(2H)-dione]	142 µM	71.8 µM	0.8 to 3.2 µg/mL
